Assay results reported in patent US6376666B1 (Nauchno-Issledovatelsky Institut Farmakologii Rossiiskoi …, priority 1994, dated 2002).
Marks after values point to notes of the source that are not given here.

Columns and labels:
[1] = test system: calcium chloride arrhythmia; test: calcium chloride arrhythmia in concious rats; assay type: in vivo; conditions: concious rats, given 2 min prior calcium chloride 250-300 mg/kg i.v.
Experimental: In these experiments the outbred concious rats 180-200 g of weight were injected with 10% solution of calcium chloride in tail vein at dose range of 250-300 mg/kg.

aconitine arrhythmia = test: animal or person; assay type: in vivo, rats
Experimental: Aconitine arrhythmia. The aconitine arrhythmia was induced in concious rats weighing 180-200 g by the injection in tail vein of the aconitine sulfate solution at dose range of […]. […] The tested compounds were administered i.v. 3 min prior aconitine injection. The ED50 value was calculated according to Litchfield's method.

[2] = test system: ventricular fibrillations; test: ventricular fibrillation, 7-min occlusion and reperfusion of coronary artery in anesthetized rats; assay type: in vivo
Experimental: The experiments were conducted in male rats weighing 180-240 g and anesthetized with nembutal (60 mg/kg i.v.) with open chest and artificial respiration. The occlusion of the left coronary artery was performed 1-2 min after experiment beginning with following reperfusion after 7 min. During this period time according to literature data [Krzeminski T., Grzyb J., Kurcok A., Brus R.: Pol.J.Pharmacol., 1992, 44, Suppl., p.169-170] the maximum number of ventricular fibrillations (70-100%) were registered. The ECG in the 2nd standard lead was recorded in “Mingograph-81”. The number of ventricular fibrillations during occlusion and reperfusion periods, the life menacing arrhythmia (fibrillation+paroxysmal ventricular tachycardia) and total number of arrhythmias were calculated. The known antiarrhythmic drug bonnecor was used as the reference agent [Grigorieva E. K., Gorbunova V. V. in: “New antiarrhythmic drug—bonnecor (the pharmacology and clinical usage)”, M., 1993, p.64-67]. The compounds were injected i.v. at the following doses: bonnecor—1,0 mg/kg, compound IX—2,0 mg/kg, compound XX—1,0 mg/kg. The control animals were administered with the equivalent volume of physiological solution (1,0 ml/kg). 4 series of experiments were carried out in 80 rats. The results were assessed according to the method of point scale: the absence of arrhythmia—0 point, extrasystole—1 point, paroxysmal ventricular tachycardia—2 points, ventricular fibrillation—3 points, fibrillation observed during the occlusion of coronary vessel—4 points. For statistical analysis the Fisher's exact probability and Wilconson's methods were used.
[Krzeminski T., Grzyb J., Kurcok A., Brus R.: Pol.J.Pharmacol., 1992, 44, Suppl., p.169-170] have shown that 7 min occlusion with following reperfusion of coronary artery in anesthetized rats produced the ventricular fibrillation (68-100%). Defibrotide and prostacycline decreased the number of fibrillations. We have studied the antifibrillator activity of some derivatives of 2-mercaptbenzimidazole in this model with disturbances of heart rhythm. Bonnecor (1,0 mg/kg) was used as the reference drug. It is well known that this agent produces apronouncedantifibrillatoryactivity [Grigorieva E. K., Gorbunova V. V. in: “New antiarrhythmic drug-bonnecor (the pharmacology and clinical usage)”, M., 1993, p.64-67].

[3] = after i.v. injection

SMILES: CCOC(=O)Nc1ccc2c(c1)N(C(=O)CN(C)C)c1ccccc1CC2 [Bonnecor, bonnecor, reference compound]
- Calcium chloride arrhythmia ED50 (mean effective dose) [1]: 1.6 mg/kg
- LD50/ED50 (antiarrhythmic index) (aconitine arrhythmia; LD50 i.v. / ED50 aconitine arrhythmia): 50
- Aconitine arrhythmia ED50 (aconitine arrhythmia; concious rats, i.v. 3 min prior aconitine): 0.23 mg/kg
- antifibrillatory effect, in words ([2]; anesthetized rats i.v., bonnecor 1,0, IX 2,0, X (printed) 1,0 mg/kg): decreased the number of both the ventricular fibrillations and lethality hazardous arrhythmia
- Number of VF (ventricular fibrillations) ([2]; anesthetized rats, 1 mg/kg i.v., 18 animals, control 15 of 24): 6*
- Number of LHA (lethality hazardous arrhythmia) ([2]; anesthetized rats, 1 mg/kg i.v., 18 animals, control 22 of 24): 12*
- Total numbers of arrhyt. ([2]; anesthetized rats, 1 mg/kg i.v., 18 animals, control 24 of 24): 16
- Severity of arrhythmias ([2]; anesthetized rats, 1 mg/kg i.v., 18 animals, control 66): 36* points
- Acute toxicity LD50 [3]: 11.5 mg/kg
